{"source": "patent US6572839B2", "about": "“Sensitizer for tumor treatment” (Hitachi, Ltd., priority 2000, dated 2003)", "key": {"[1]": {"test": "Evaluation of the photosensitivity (photo-oxidation reaction of iodide)", "conditions": "light of 365 nm, DMF solution, FIG. 9 / FIG. 10", "procedure": "The photo-oxidation reaction of iodide as represented by Equation 4 was carried out in the presence of RB—Cn and the photosensitivity of the compound was evaluated.\nA mixed solution composed of 2 mL of a 0.1 mol/L solution of potassium iodide in DMF and 1 mL of a 1 mmol/L solution of RB—Cn in DMF was placed in a glass dish (48 mm in diameter) and irradiated with light of 365 nm for a predetermined period. The absorbance, at 350 nm, of the sample was measured before and after exposure. 350 nm is the absorption maximum wavelength of I3^—. Based on the absorbance (A), the concentration of I3^— was calculated using Equation 5.\nThe procedure of Test Example 8 was followed in the presence of RB—COOH—Cn."}, "[2]": {"test": "Evaluation for contrast-enhancing effect (ultrasound imaging)", "type": "in vivo", "conditions": "dog, 5 mL of 0.1 mmol/L solution intravenously, 5 MHz linear probe, mode B", "procedure": "Using an ultrasound diagnostic system equipped with a linear probe with a central frequency of 5 MHz, 5 mL of the solution of RB—COOH—C7 obtained in Test Example 10 was intravenously administered to a dog (weighing 12 kg, 2 years old) while ultrasonically scanning the hepatic region of the dog with mode B. Immediately thereafter, 5 mL of physiological saline was administered. After administration, the hepatic artery and aorta were imaged and the imaging lasted for about 30 seconds."}, "[3]": {"test": "Evaluation of the acoustic cavitation promoting effect (subharmonic signal upon ultrasound irradiation)", "conditions": "0.1 mmol/L in PBS (pH 7.4), 0.5 MHz and 1 MHz, acoustic intensity 5 W/cm^2, 1 minute", "procedure": "A 0.1 mmol/L solution of RB—Cn in PBS (pH 7.4, containing 1% DMF) was sealed in a polyethylene bag (30×25 mm, 0.03 mm thick) and irradiated with ultrasonic waves of 0.5 MHz and 1 MHZ simultaneously under conditions of an acoustic intensity of 5 or 10 W/cm^2 and an exposure time of 1 minute, using an experimental apparatus having the constitution shown in FIG. 4.\nIn FIG. 4, 10 indicates degassed water, 11—a water tank, 12—a polyethylene bag, 13—a sample solution, 14-1 and 14-2 each—a holdfast, 15—a hanger, 16—a hydrophone, 17—a supporter, 18—an ultrasound transducer, 19—a supporter, 20—a signal processor, 21—an amplifier, 22—a spectrum analyzer, 23—an amplifier, and 24—a wave generator.\nThe acoustic signals at the subharmonic (250 kHz) characteristic to acoustic cavitation were measured at one-second intervals using a focusing type hydrophone, the root mean square of the signal amplitudes during the irradiation period was calculated and this was used as an indication of acoustic cavitation.\nFor comparison, a 0.1 mmol/L solution of RB in PBS (pH 7.4) was also measured for subharmonic signals. […] For each of RB and the RB—Cn species containing 3, 6 or 18 carbon atoms in the alkyl group (RB—C3, RB—C6 and RB—C18), the relation between acoustic intensity and subharmonic intensity is shown in FIG. 6.\nUsing a 0.1 mmol/L solution of RB—COOH—Cn in PBS (pH 7.4), the acoustic cavitation promoting effect was evaluated in the same manner as in Test Example 5.\nUsing a 0.1 mmol/L solution of xanthene dye sensitizer—COOH—Cn in PBS (pH 7.4), the acoustic cavitation promoting effect was evaluated in the same manner as in Test Example 5."}, "[4]": {"test_system": "murine experimental tumor Colone 26", "test": "Evaluation of the accumulation of RB—COOH—Cn in tumor tissues (fluorescence intensity ratio)", "type": "in vivo", "conditions": "tumor bearing CDF1 mice, intravenous, 10 mg/kg, until 120 minutes after administration, FIG. 3", "procedure": "Tumor bearing mice were intravenously administered with RB or RB—Cn and, after the lapse of a predetermined period, tumor tissues were excised. The fluorescence spectrum of the agent extracted from the tumor tissues was measured and the concentration of the agent was estimated from the fluorescence intensity to thereby evaluate the accumulability in tumor tissues. Mice subjected to the test were 5-week male CDF1 mice one to two weeks after subcutaneous implantation of small pieces (e.g. 1 mm^3 pieces) of the murine experimental tumor Colone 26. The dose of the agent was 10 mg/kg and methanol or chloroform was used for the extraction.\nTumor bearing mice were intravenously administered with RB or RB—COOH—Cn and, after the lapse of a predetermined period, tumor tissues were excised. The fluorescence intensity of the tumor tissues was measured and the accumulability in tumor tissues was evaluated based on the ratio of that intensity and the fluorescence intensity of an internal standard (fluorescence intensity ratio). The mice used in the test and the dose of the agent were the same as in Test Example 3. As an example of the results, the relation between the time from agent administration to mice to tumor tissue excision and the fluorescence intensity ratio is shown in FIG. 3 for each of RB and RB—COOH—Cn species containing 2, 3, 7 or 15 carbon atoms in the alkyl group (RB—COOH—C2, RB—COOH—C3, RB—COOH—C7 and RB—COOH—C15)."}, "[5]": {"test": "Evaluation for bubble stability", "type": "physicochemical", "conditions": "0.1 mmol/L in PBS (pH 7.4), 4 mL shaken 5 minutes", "procedure": "Using a 0.1 mmol/L solution of RB—COOH—C7 in PBS (pH 7.4), the stability of bubbles was measured. 4 mL of the solution of RB—COOH—C7 was placed in a test tube having a length of […] and shaken on a shaker for 5 minutes and then the time until the disappearance of the bubbles was measured. PBS was used as a control."}, "[6]": {"test": "Solubility measurement of RB and lipophilic derivatives of RB in PBS and 1-octanol", "type": "physicochemical", "procedure": "The sonochemical sensitizers of the invention, namely RB—COOH—Cn species (n being the number of carbon atoms in the straight alkyl group) were examined for their solubility in an aqueous solution and in an organic solvent. The aqueous solution used was a phosphate buffer solution (hereinafter, PBS) with a pH of 7.4 and the organic solvent used was 1-octanol.\nFirst, saturated solutions of each RB—COOH—Cn in PBS and in 1-octanol were prepared at 25° C. and each solution was measured for its ultraviolet-visible absorption spectrum. Based on the molar absorptivity determined beforehand by measuring the ultraviolet-visible absorption spectrum of a solution having a known concentration, the agent concentration in the saturated solution was estimated.\nFor comparison, the starting material RB and two kinds of RB derivative, for which an attempt was made to increase the lipophilicity by a method other than that of the invention, namely rose bengal alkyl esters (hereinafter, RB—Cn, n being the number of carbon atoms in the alkyl group) and rose bengal fatty acid esters (hereinafter, RB—Cn—COOH, n being the number of carbon atoms in the methylene chain), were also subjected to solubility measurement.\nIn the solubility measurement, the respective derivatives having an equal number of carbon atoms in the alkyl group (n=7) were used."}}, "data": [{"smiles": "O=C(O)CCCCCCCOC(=O)c1c(Cl)c(Cl)c(Cl)c(Cl)c1-c1c2cc(I)c(=O)c(I)c-2oc2c(I)c(O)c(I)cc12", "note": "[RB—COOH—C7, Rose bengal-α-carboxyheptyl ester]", "values": [{"measurement": "relation between light exposure time and yield in photo-oxidation of iodide", "setting": "[1]", "result": "almost proportional to the exposure time"}, {"measurement": "duration of imaging of hepatic artery and aorta", "setting": "[2]", "result": "about 30 seconds"}, {"measurement": "subharmonic generation", "setting": "[3]", "result": "observed"}, {"measurement": "occurrence/concentration in tumor tissues (fluorescence intensity ratio to internal standard)", "setting": "[4]", "result": "higher than that of RB"}, {"measurement": "time bubbles remain after shaking", "setting": "[5]", "result": "about 120 seconds"}, {"measurement": "solubility in the organic solvent relative to that of RB—C7—COOH", "setting": "[6]; 1-octanol", "result": "about 5 times"}, {"measurement": "solubility in 1-octanol (organic solvent) relative to the solubility of RB", "setting": "[6]; 25° C.", "result": 120, "unit": "times"}, {"measurement": "solubility in the aqueous solution relative to that of RB—C7", "setting": "[6]; PBS (pH 7.4), 25° C.", "result": 83, "unit": "times"}, {"measurement": "solubility in PBS (pH 7.4)", "setting": "[6]; saturated solution at 25° C., aqueous solution", "result": 0.83, "unit": "mmol/l"}, {"measurement": "solubility in 1-octanol", "setting": "[6]; saturated solution at 25° C., organic solvent", "result": 12, "unit": "mM"}]}]}
